Data reported in patent US7834024B2, “Compositions and methods for inhibition of the JAK pathway” (Rigel Pharmaceuticals, Inc., priority 2007, dated 2010).
Read-outs that look alike come from different tables or passages of the source.

Tested on: Ramos B-Cell Line Stimulated with IL-4 (JAK-1 and JAK-3 / Stat-6, CD23)
Assay: Assay for Ramos B-Cell Line Stimulated with IL-4 (CD23 upregulation, FACS)
Format: cell-based
Conditions: human Ramos B cells, compound 1 hour, IL-4 50 units/mL for 20-24 hours, anti-CD23-PE FACS, read-out: Example 2 (IC50)
Outline: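 Human Ramos B cells (5×10^4 per point, RPMI with 5% serum) pre-incubated 1 hour at 37° C with compound or DMSO, then stimulated with IL-4 at 50 units/mL final for 20-24 hours. CD23 upregulation measured by flow cytometry.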

Row | Compound | IC50 (Homo sapiens, Ramos) [nM] | IC50 [nM]
1 | COc1cc(Nc2nc(Nc3ccc4oc(C(=O)NCCN5CCOCC5)cc4c3)ncc2F)ccc1Cl [III-2, N4-(4-Chloro-3-methoxyphenyl)-5-fluoro-N2-[2-(2-(N-morpholinyl)ethylaminocarbonyl)benzofuran-5-yl]-2,4-pyrimidinediamine] | 144 | 
2 | N#CCc1ccc(Nc2ncc(F)c(Nc3ccc(F)c(Cl)c3)n2)cc1 [Compound I-117, N4-(3-Chloro-4-fluorophenyl)-N2-(4-cyanomethylphenyl)-5-fluoro-2,4-pyrimidinediamine] | 6710 | 
3 | Cc1noc(COc2ccc(N(C)c3nc(Nc4ccc(C(N)=O)c(Cl)c4)ncc3F)cc2)n1 [Compound I-16, N2-(4-Aminocarbonyl-3-chlorophenyl)-5-fluoro-N4-methyl-N4-[4-((3-methyl-1,2,4-oxadiazol-5-yl)methyleneoxy)phenyl]-2,4-pyrimidinediamine] |  | 909
4 | CN1CCN(C(=O)c2ccc(Nc3ncc(F)c(Nc4ccc(CC#N)cc4)n3)cc2)CC1 [Compound I-72, N4-(4-Cyanomethylphenyl)-5-fluoro-N2-[4-((4-methylpiperazin-1-yl)carbonyl)phenyl]-2,4-pyrimidinediamine] |  | 599
5 | N#CCOc1ccc(Nc2nc(Nc3cccc(C(N)=O)c3)ncc2F)cc1Cl [Compound I-99, N2-(3-Aminocarbonylphenyl)-N4-(3-chloro-4-cyanomethoxyphenyl)-5-fluoro-2,4-pyrimidinediamine] | 156 | 
6 | Cc1nc(COc2ccc(Nc3nc(Nc4ccc(C(=O)N5CCN(C)CC5)cc4)ncc3F)cc2)no1 [Compound I-60, 5-Fluoro-N4-[4-((5-methyl-1,2,4-oxadiazol-3-yl)methoxy)phenyl]-N2-[4-((4-methylpiperazin-1-yl)carbonyl)phenyl]-2,4-pyrimidinediamine] |  | 421
7 | CCc1cc(Nc2ncc(F)c(Nc3ccc4c(c3)NC(=O)C(F)(F)O4)n2)cc(C#N)c1Cl [II-24, N2-(4-Chloro-3-cyano-5-ethylphenyl)-N4-(2,2-difluoro-3-oxo-4H-benzo[1,4]oxazin-6-yl)-5-fluoro-2,4-pyrimidinediamine] | 1740 | 
8 | C#CCOc1ccc(Nc2nc(Nc3ccc4c(c3)C(=O)NCC4)ncc2F)cc1 [Compound V-2, 5-Fluoro-N2-(1-oxo-1,2,3,4-tetrahydroisoquinolin-7-yl)-N4-[4-(2-propynyloxy)phenyl]-2,4-pyrimidinediamine] | 355 | 
9 | CNC(=O)COc1cc(Nc2ncc(C)c(Nc3ccc4c(n3)NC(=O)C(C)(C)O4)n2)cc(OC)c1OC [II-35, N2-[3,4-Dimethoxy-5-(N-methylaminocarbonylmethoxy)phenyl]-N4-(2,2-dimethyl-3-oxo-4H-5-pyrido[1,4]oxazin-6-yl)-5-methyl-2,4-pyrimidinediamine] |  | 87.3
10 | CN1CCN(C(=O)c2ccc(Nc3ncc(F)c(Nc4ccc(CC#N)cc4)n3)cc2)CC1 [Compound I-73, N4-(4-Cyanomethylphenyl)-5-fluoro-N2-[4-((4-methylpiperazin-1-yl)carbonyl)phenyl]-2,4-pyrimidinediamine] |  | 1730
11 | CNC(=O)COc1cccc(Nc2ncc(N)c(Nc3ccc4cn[nH]c4c3)n2)c1 [Compound V-4] | 1970 | 
12 | COc1cc(Nc2ncc(F)c(Nc3ccc4c(c3)NC(=O)C(C)(C)O4)n2)cc(OCC#N)c1OC [II-15, N2-(3-Cyanomethoxy-4,5-dimethoxyphenyl)-N4-(2,2-dimethyl-3-oxo-4H-benzo[1,4]oxazin-6-yl)-5-fluoro-2,4-pyrimidinediamine] | 69.3 | 
13 | CNC(=O)c1cc(Nc2ncc(F)c(Nc3cccc(OCC(N)=O)c3)n2)ccc1N1CCN(C)CC1 [Compound I-51, N4-(3-Aminocarbonylmethoxyphenyl)-5-fluoro-N2-[3-methylaminocarbonyl-4-(4-methylpiperazin-1-yl)phenyl]-2,4-pyrimidinediamine] | 357 | 
14 | CNC(=O)COc1cccc(Nc2ncc(F)c(Nc3ccc4c(c3)N(Cc3ccccn3)C(=O)CO4)n2)c1 [II-14, 5-Fluoro-N2-[3-(N-methylaminocarbonylmethyleneoxy)phenyl]-N4-[3-oxo-4-(2-pyridinylmethyl)-2H-benzo[1,4]oxazin-6-yl]-2,4-pyrimidinediamine] |  | 672
15 | Cc1cnc(Nc2cnc3c(c2)OC(C)(C)C(=O)N3)nc1Nc1cnc2c(c1)OC(C)(C)C(=O)N2 [VII-1, N4,N2-Bis(2,2-Dimethyl-3-oxo[4H]-5-pyrido[1,4]oxazin-7-yl)-5-methyl-2,4-pyrimidinediamine] | 2630 | 
16 | Cc1cnc(Nc2cccc(C(N)=O)c2)nc1Nc1ccc2c(c1)NC(=O)CS2 [II-44, N2-(3-Aminocarbonylphenyl)-N4-(3,4-dihydro-2H-3-oxo-4H-benz[1,4]thiazin-6-yl)-5-methyl-2,4-pyrimidinediamine] |  | 189
17 | Cc1nc(COc2ccc(Nc3nc(Nc4ccc(C#N)cc4)ncc3F)cc2)no1 [Compound I-58, N2-(4-Cyanophenyl)-5-fluoro-N4-[4-((5-methyl-1,2,4-oxadiazol-3-yl)methoxy)phenyl]-2,4-pyrimidinediamine] | 967 | 

Row | Compound | IC50 (Homo sapiens, Ramos) [nM] | IC50 [nM]
18 | CNC(=O)COc1cc(Nc2ncc(F)c(Nc3ccc4c(c3)NC(=O)CS4)n2)cc(OC)c1OC [II-19, N2-[4,5-Dimethoxy-3-(N-methylaminocarbonylmethyleneoxy)phenyl]-5-Fluoro-N4-(3-oxo-2H,4H-benzo[1,4]thiazin-6-yl)-2,4-pyrimidinediamine] |  | 95
19 | N#Cc1cccc(Nc2ncc(F)c(Nc3ccc(OCC(N)=O)cc3)n2)c1 [Compound I-22, N4-(4-Aminocarbonylmethoxyphenyl)-N2-(3-cyanophenyl)-5-fluoro-2,4-pyrimidinediamine] | 886 | 
20 | N#CCOc1ccc(Nc2nc(Nc3ccc(CC#N)cc3)ncc2F)cc1 [Compound I-64, N4-(4-Cyanomethoxyphenyl)-N2-(4-cyanomethylphenyl)-5-fluoro-2,4-pyrimidinediamine] | 79.7 | 
21 | Cc1cc(Nc2nc(Nc3ccc(CC#N)cc3)ncc2F)cc(C)c1OC(C)C#N (stereo not shown) [Compound I-97, N4-[4-(1-Cyanoethoxy)-3,5-dimethylphenyl]-N2-(4-cyanomethylphenyl)-5-fluoro-2,4-pyrimidinediamine] | 155 | 
22 | CNC(=O)COc1cccc(Nc2ncc(F)c(Nc3ccc4c(c3)N(CC#N)C(=O)CS4)n2)c1 [II-12, N4-(4-Cyanomethyl-3-oxo-2H-benzo[1,4]thiazin-6-yl)-5-fluoro-N2-[3-(N-methylaminocarbonylmethyleneoxy)phenyl]-2,4-pyrimidinediamine] |  | 36.2
23 | N#Cc1ccc(Nc2ncc(F)c(Nc3ccc(OCC(N)=O)cc3)n2)cc1 [Compound I-24, N4-(4-Aminocarbonylmethoxyphenyl)-N2-(4-cyanophenyl)-5-fluoro-2,4-pyrimidinediamine] | 245 | 
24 | CN1CCN(c2ccc(Nc3ncc(F)c(Nc4cccc(OCC#N)c4)n3)cc2C(N)=O)CC1 [Compound I-54, N2-[3-Aminocarbonyl-4-(4-methylpiperazin-1-yl)phenyl]-N4-(3-cyanomethoxyphenyl)-5-fluoro-2,4-pyrimidinediamine] | 19.1 | 
25 | C#CCOc1ccc(Nc2nc(Nc3cccc(C(N)=O)c3)ncc2F)cc1 [Compound I-6, N2-(3-Aminocarbonylphenyl)-5-fluoro-N4-[4-(2-propynyloxy)phenyl]-2,4-pyrimidinediamine] | 2770 | 
26 | Cc1noc(CCc2ccc(Nc3nc(Nc4ccc(CCC#N)cc4)ncc3F)cc2)n1 [Compound I-121, 5-Fluoro-N4-[4-(2-(3-methyl-1,2,4-oxadiazol-5-yl)ethyl)phenyl]-N2-[4-(2-cyanoethyl)phenyl]-2,4-pyrimidinediamine] | 2140 | 
27 | Cc1noc(COc2ccc(Nc3nc(Nc4cccc(C#N)c4)ncc3F)c(C)c2)n1 [Compound I-116, N2-(3-Cyanophenyl)-5-fluoro-N4-[2-methyl-4-((3-methyl-1,2,4-oxadiazol-5-yl)methoxy)phenyl]-2,4-pyrimidinediamine] | 1440 | 
28 | Cc1noc(COc2ccc(Nc3nc(Nc4cccc(C#N)c4)ncc3F)cc2)n1 [Compound I-111, N2-(3-Cyanophenyl)-5-fluoro-N4-[4-((3-methyl-1,2,4-oxadiazol-5-yl)methoxy)phenyl]-2,4-pyrimidinediamine] | 1050 | 
29 | CNC(=O)c1cc(Nc2ncc(F)c(Nc3ccc(OCc4noc(C)n4)cc3)n2)ccc1N1CCN(C)CC1 [Compound I-63, 5-Fluoro-N2-[3-methylaminocarbonyl-4-(4-methylpiperazin-1-yl)phenyl]-N4-[4-((5-methyl-1,2,4-oxadiazol-3-yl)methoxy)phenyl]-2,4-pyrimidinediamine] | 265 | 
30 | Cc1cc(Nc2nc(Nc3ccc(C(N)=O)c(Cl)c3)ncc2F)ccc1N1CCN(C)CC1 [Compound I-11, N2-(4-Aminocarbonyl-3-chlorophenyl)-5-fluoro-N4-[3-methyl-4-(4-methylpiperazin-1-yl)phenyl]-2,4-pyrimidinediamine] | 56.3 | 
31 | CN1CCOc2cc(Nc3nc(Nc4ccc(C(N)=O)cc4)ncc3F)ccc21 [II-3, N2-(4-Aminocarbonylphenyl)-N4-(3,4-dihydro-4-methyl-2H-benzo[1,4]oxazin-7-yl)-5-fluoro-2,4-pyrimidinediamine] | 62.9 | 
32 | Cc1cc(Nc2nc(Nc3ccc(CC#N)cc3)ncc2F)ccc1OCC#N [Compound I-86, N4-(4-Cyanomethoxy-3-methylphenyl)-N2-(4-cyanomethylphenyl)-5-fluoro-2,4-pyrimidinediamine] | 142 | 
33 | Cc1cnc(Nc2cnc3c(c2)OCC(=O)N3)nc1Nc1cnc2c(c1)OCC(=O)N2 [VII-3, N4,N2-Bis(3-oxo[4H]-5-pyrido[1,4]oxazin-7-yl)-5-methyl-2,4-pyrimidinediamine] | 195 | 
34 | N4-(3-Chloro-4-methoxyphenyl)-N2-[1-(2-(N-morpholinyl)ethylaminocarbonyl)-1H-indol-6-yl]-2,4-pyrimidinediamine [VI-3] |  | 645
